Results taken from EP4740948A1 (Dong Wha Pharm. Co., Ltd., priority 2023, dated 2025).

What was measured:
Format in all cases: cell-based
[1] = system: Lovo cells; assay: Cancer cell proliferation inhibition (Cell Counting Kit-8), colorectal cancer cell line; conditions: 1000 nM, cultured seven to 11 days; for inhibition at 1 µM: Homo sapiens, LoVo, 264 h, read-out: % inhibition rate LoVo
Experimental: (§1) In addition, as one example of solid cancer in which an overexpression of EZH2 and a consequent disease association therebetween is reported, a proliferation inhibitory activity of the 1,3-benzodioxole derivative compounds represented by chemical formula I of the present invention was evaluated in Lovo cells as a colorectal cancer cell line, SW-13 cells as an adrenal cancer cell line, MIA-PaCa-2 cells as a pancreatic cancer cell line, and NCI-H1299 cells as a lung cancer cell line.
(§2) Each cell line (G401 cell, MKN-45 cell, Lovo cell, SW-13 cell, MIA-PaCa-2, NCI-H1299) of Table 2 below was cultured using RPMI1640, McCoy's 5a, L-15 or DMEM containing 10% fetal bovine serum, and the cells were seeded into wells of a 96-well culture dish at 100 to 1,000 cells each, and a test substance 1000 nM was cultured for seven to 11 days after drug treatment. After the culture, the cells were measured according to a manufacturer's instructions using Cell Counting Kit-8, and a cell proliferation inhibitory effect (% inhibition rate) of the test substance was obtained.
(§3) The cell proliferation inhibitory effect (% inhibition rate) of the test substance was calculated using a following equation. % inhibition rate = {1−(testgroup/controlgroup)} X 100 [formula]

[2] = system: G401 cells; assay: Cancer cell proliferation inhibition (Cell Counting Kit-8), rhabdoid tumor cell line; conditions: 1000 nM, cultured seven to 11 days; for % inhibition rate G401: 1 µM; for inhibition at 1 µM: Homo sapiens, G-401, 264 h, read-out: % inhibition rate G401
From the text: (§4) Among solid cancer cells, in G401 cells in which expression of SMARCB1, which is a member of switch/sucrosenon-fermenting (SWI/SNF), is defective as a cell line of a rhabdoid tumor in which a therapeutic effect may be expected through dual inhibition of EZH1/2, and MKN-45 cells in which expression of ARID1A, which is a member of SWI/SNF, is defective as a gastric cancer cell line, a proliferation inhibitory ability of the 1,3-benzodioxole derivative compounds represented by chemical formula I of the present invention was evaluated.
as §2, §3

[3] = system: MKN-45 cells; assay: Cancer cell proliferation inhibition (Cell Counting Kit-8), gastric cancer cell line; conditions: 1000 nM, cultured seven to 11 days; for inhibition at 1 µM: Homo sapiens, MKN-45, 264 h, read-out: % inhibition rate MKN -45
From the text: as §4, §2, §3

[4] = system: SW-13 cells; assay: Cancer cell proliferation inhibition (Cell Counting Kit-8), adrenal cancer cell line; conditions: 1000 nM, cultured seven to 11 days; for inhibition at 1 µM: Homo sapiens, SW13, 264 h, read-out: % inhibition rate SW-13
Experimental: as §1, §2, §3

[5] = system: MIA-PaCa-2 cells; assay: Cancer cell proliferation inhibition (Cell Counting Kit-8), pancreatic cancer cell line; conditions: 1000 nM, cultured seven to 11 days; for inhibition at 1 µM: Homo sapiens, MIA PaCa-2, 264 h, read-out: % inhibition rate MIA-Paca2
Experimental: as §1, §2, §3

[6] = system: NCI-H1299 cells; assay: Cancer cell proliferation inhibition (Cell Counting Kit-8), lung cancer cell line; conditions: 1000 nM, cultured seven to 11 days; for inhibition at 1 µM: Homo sapiens, NCI-H1299, 264 h, read-out: % inhibition rate NCI-H129 9
Experimental: as §1, §2, §3

Row | Structure (SMILES) | % inhibition rate LoVo [1] | % inhibition rate G401 [2] | % inhibition rate MKN -45 [3] | % inhibition rate SW-13 [4] | % inhibition rate MIA-Paca2 [5] | % inhibition rate NCI-H129 9 ([6]; 1 µM) | % inhibition rate MKN -45 ([3]; 1 µM) | % inhibition rate SW-13 ([4]; 1 µM) | % inhibition rate NCI-H129 9 [6] | % inhibition rate LoVo ([1]; 1 µM) | inhibition at 1 µM [1] | inhibition at 1 µM [2] | inhibition at 1 µM [3] | inhibition at 1 µM [4] | inhibition at 1 µM [5] | inhibition at 1 µM [6]
1 | CSc1cc(C)[nH]c(=O)c1CNC(=O)c1cc(-c2cnc(N3CCOCC3)nc2)c2c(c1C)OC(C)(C1CCN(CC(F)F)CC1)O2 (single isomer, unassigned) [Compound 72, 2-(1-(2,2-difluoroethyl)piperidin-4-yl)-2,4-dimethyl-N-((6-methyl-4-(methylthio)-2-oxo-1,2-dihydropyridin-3-yl)methyl)-7-(2-morpholinopyrimidin-5-yl)benzo[d][1,3]dioxole-5-carboxamide] | +++ (+++: ≥70%) | + (+: ≤30%) | ++ (++: more than 30% and less than 70%) | ++ (++: more than 30% and less than 70%) | + (+: ≤30%) | + (+: ≤30%) |  |  |  |  |  |  |  |  |  | 
2 | CCN1CCC(C2(C)Oc3c(-c4cnc(N5CCOCC5)nc4)cc(C(=O)NCc4c(SC)cc(C)[nH]c4=O)c(C)c3O2)CC1 (single isomer, unassigned) [Compound 74, 2-(1-ethylpiperidin-4-yl)-2,4-dimethyl-N-((6-methyl-4-(methylthio)-2-oxo-1,2-dihydropyridin-3-yl)methyl)-7-(2-morpholinopyrimidin-5-yl)benzo[d][1,3]dioxole-5-carboxamide] | ++ (++: more than 30% and less than 70%) | + (+: ≤30%) |  |  | + (+: ≤30%) |  | + (+: ≤30%) | + (+: ≤30%) | + (+: ≤30%) |  |  |  |  |  |  | 
3 | CCN1CCN(c2ncc(-c3cc(C(=O)NCc4c(SC)cc(C)[nH]c4=O)c(C)c4c3OC(C)(C3CCN(CC(F)(F)F)CC3)O4)cn2)CC1 (single isomer, unassigned) [Compound 77, 7-(2-(4-ethylpiperazin-1-yl)pyrimidin-5-yl)-2,4-dimethyl-N-((6-methyl-4-(methylthio)-2-oxo-1,2-dihydropyridin-3-yl)methyl)-2-(1-(2,2,2-trifluoroethyl)piperidin-4-yl)benzo[d][1,3]dioxole-5-carboxamide] |  | + (+: ≤30%) |  |  | + (+: ≤30%) |  | + (+: ≤30%) | + (+: ≤30%) | + (+: ≤30%) | ++ (++: more than 30% and less than 70%) |  |  |  |  |  | 
4 | CCN(C)c1ccc(-c2cc(C(=O)NCc3c(SC)cc(C)[nH]c3=O)c(C)c3c2OC(C)(C2CCN(CC(F)(F)F)CC2)O3)cn1 (single isomer, unassigned) [Compound 80, 7-(2-(ethyl(methyl)amino)pyridin-5-yl)-2,4-dimethyl-N-((6-methyl-4-(methylthio)-2-oxo-1,2-dihydropyridin-3-yl)methyl)-2-(1-(2,2,2-trifluoroethyl)piperidin-4-yl)benzo[d][1,3]dioxole-5-carboxamide] | +++ (+++: ≥70%) | + (+: ≤30%) |  |  | + (+: ≤30%) | + (+: ≤30%) | ++ (++: more than 30% and less than 70%) | + (+: ≤30%) |  |  |  |  |  |  |  | 
5 | CCN(C)c1ncc(-c2cc(C(=O)NCc3c(SC)cc(C)[nH]c3=O)c(C)c3c2OC(C)(C2CCN(CC(F)F)CC2)O3)cn1 (single isomer, unassigned) [Compound 82, 2-(1-(2,2-difluoroethyl)piperidin-4-yl)-7-(2-(ethyl(methyl)amino)pyrimidin-5-yl)-2,4-dimethyl-N-((6-methyl-4-(methylthio)-2-oxo-1,2-dihydropyridin-3-yl)methyl)benzo[d][1,3]dioxole-5-carboxamide] | +++ (+++: ≥70%) | ++ (++: more than 30% and less than 70%) |  |  | + (+: ≤30%) |  | + (+: ≤30%) | + (+: ≤30%) | + (+: ≤30%) |  |  |  |  |  |  | 
6 | CCN1CCC(C2(C)Oc3c(-c4cnc(N(C)CC)nc4)cc(C(=O)NCc4c(SC)cc(C)[nH]c4=O)c(C)c3O2)CC1 (single isomer, unassigned) [Compound 84, 7-(2-(ethyl(methyl)amino)pyrimidin-5-yl)-2-(1-ethylpiperidin-4-yl)-2,4-dimethyl-N-((6-methyl-4-(methylthio)-2-oxo-1,2-dihydropyridin-3-yl)methyl)benzo[d][1,3]dioxole-5-carboxamide] |  | + (+: ≤30%) | + (+: ≤30%) |  | + (+: ≤30%) |  |  | + (+: ≤30%) | + (+: ≤30%) | + (+: ≤30%) |  |  |  |  |  | 
7 | CCN(C)c1ccc(-c2cc(C(=O)NCc3c(SC)cc(C)[nH]c3=O)c(C)c3c2OC(C)(C2CCN(CC(F)(F)F)CC2)O3)cn1 (single isomer, unassigned) [Compound 87, 7-(6-(ethyl(methyl)amino)pyridin-3-yl)-2,4-dimethyl-N-((6-methyl-4-(methylthio)-2-oxo-1,2-dihydropyridin-3-yl)methyl)-2-(1-(2,2,2-trifluoroethyl)piperidin-4-yl)benzo[d][1,3]dioxole-5-carboxamide] | +++ (+++: ≥70%) | + (+: ≤30%) |  |  | + (+: ≤30%) | + (+: ≤30%) | + (+: ≤30%) | + (+: ≤30%) |  |  |  |  |  |  |  | 
8 | CSc1cc(C)[nH]c(=O)c1CNC(=O)c1cc(-c2ccc(N3CC(C)CC(C)C3)nc2)c2c(c1C)OC(C)(C1CCN(CC(F)(F)F)CC1)O2 (stereo not drawn) [Compound 37, 7-(6-(3,5-dimethylpiperidin-1-yl)pyridin-3-yl)-2,4-dimethyl-N-((6-methyl-4-(methylthio)-2-oxo-1,2-dihydropyridin-3-yl)methyl)-2-(1-(2,2,2-trifluoroethyl)piperidin-4-yl)benzo[d][1,3]dioxole-5-carboxamide] |  |  |  |  |  |  |  |  |  |  | ≥ 70% | ≤ 30% | ≤ 30% | ≤ 30% | ≤ 30% | 30 to 70%
9 | CSc1cc(C)[nH]c(=O)c1CNC(=O)c1cc(-c2ccc(N3C[C@@H](C)O[C@@H](C)C3)nc2)c2c(c1C)OC(C)([C@H]1CC[C@H](N3CC(CC(F)(F)F)C3)CC1)O2 (stereo partly drawn) [Compound 102, 7-(6-((2S,6R)-2,6-dimethylmorpholino)pyridin-3-yl)-2,4-dimethyl-N-((6-methyl-4-(methylthio)-2-oxo-1,2-dihydropyridin-3-yl)methyl)-2-(trans-4-(3-(2,2,2-trifluoroethyl)azetidin-1-yl)cyclohexyl)benzo[d][1,3]dioxole-5-carboxamide] |  |  |  |  |  |  |  |  |  |  | ≥ 70% | 30 to 70% | 30 to 70% | ≥ 70% | ≥ 70% | ≤ 30%
10 | CSc1cc(C)[nH]c(=O)c1CNC(=O)c1cc(-c2ccc(N3C[C@@H](C)O[C@@H](C)C3)nc2)c2c(c1C)OC(C)([C@H]1CC[C@H](N3CC(OC(C)C)C3)CC1)O2 (stereo partly drawn) [Compound 105, 7-(6-((2S,6R)-2,6-dimethylmorpholino)pyridin-3-yl)-2-(trans-4-(3-isopropoxyazetidin-1-yl)cyclohexyl)-2,4-dimethyl-N-((6-methyl-4-(methylthio)-2-oxo-1,2-dihydropyridin-3-yl)methyl)benzo[d][1,3]dioxole-5-carboxamide] |  |  |  |  |  |  |  |  |  |  | ≥ 70% | 30 to 70% | ≥ 70% | ≥ 70% | ≥ 70% | ≥ 70%
